According to ChEMBL document CHEMBL1201862, “PubChem BioAssay data set” (2004):
Activity calls are given as the source filed them.

Columns and labels:
[1] = inhibitors of intracellular T. cruzi replication, confirmation, NIH3T3 host cells, beta-gal luminescence (AID 2044); format: functional, cell-based;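 also: intracellular parasites grown in NIH/3T3 mouse fibroblasts as host cells; luminescent beta-galactosidase reporter signal from transgenic T. cruzi replicating inside host cells; inhibitors lower the luminescence signal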
[2] = system: Escherichia coli; test: microbe, parasite or virus in culture
[3] = system: Escherichia coli; test: microbe, parasite or virus in culture; remark: listed apart in the source
[4] = cytotoxicity toward NIH3T3 fibroblasts, dose response, counter-screen, cell-based, ATP luminescence, mouse fibroblasts (AID 2010); format: functional;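 also: cells exposed to compound for about 90 hours before reading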
[5] = system: A-375; test: A375 melanoma cell viability reduction, dose response, counter-screen for MITF modulator project, cherry-pick samples, set 2 (AID 540335); format: functional, cell-based; details: Homo sapiens
[6] = molecular target: T1, Microphthalmia-associated transcription factor (Homo sapiens, UniProt O75030); test: TRPM1 promoter luciferase signal decrease, dose response, MITF inhibitor project, cell-based, SK-MEL-5, cherry-picked, set 3 (AID 493073); format: functional
T1 sequence (O75030 whole entry): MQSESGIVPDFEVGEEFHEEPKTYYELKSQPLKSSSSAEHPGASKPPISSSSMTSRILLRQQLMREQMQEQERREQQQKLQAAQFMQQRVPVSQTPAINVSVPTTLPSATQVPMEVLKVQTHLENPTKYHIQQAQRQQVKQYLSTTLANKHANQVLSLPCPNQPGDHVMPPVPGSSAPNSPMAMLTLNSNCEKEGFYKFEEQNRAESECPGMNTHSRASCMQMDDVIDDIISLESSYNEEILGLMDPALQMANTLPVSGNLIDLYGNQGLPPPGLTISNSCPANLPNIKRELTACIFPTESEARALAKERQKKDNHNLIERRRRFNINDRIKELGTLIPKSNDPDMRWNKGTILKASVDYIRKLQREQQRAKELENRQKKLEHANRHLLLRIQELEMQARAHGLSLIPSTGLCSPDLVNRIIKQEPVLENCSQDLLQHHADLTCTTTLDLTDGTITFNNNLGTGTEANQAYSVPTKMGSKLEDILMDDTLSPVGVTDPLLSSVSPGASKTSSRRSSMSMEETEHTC

[7] = molecular target: T2, Ubiquitin-conjugating enzyme E2 N (Homo sapiens, UniProt P61088); format: functional;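 also: Dose-response confirmation in a TR-FRET assay detecting UBC13-driven polyubiquitin chain formation, inhibition measured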
T2 sequence (P61088 whole entry): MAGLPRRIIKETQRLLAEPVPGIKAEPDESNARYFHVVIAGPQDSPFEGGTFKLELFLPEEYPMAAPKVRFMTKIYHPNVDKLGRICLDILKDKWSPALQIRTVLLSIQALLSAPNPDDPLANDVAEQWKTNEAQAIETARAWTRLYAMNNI

[8] = system: HEK293; test: SAR Analysis of small molecule inhibitors of T-cell specific antigen receptor-induced NF-kB activation in a HEK-293T cell line using a luminescence assay - Set 2. [Related pubchem assays (depositor defined):AID435003, AID435012, AID489026]; format: functional, cell-based; details: Homo sapiens
[9] = system: Jurkat; test: SAR Analysis of small molecule inhibitors of T-cell specific antigen receptor-induced NF-kB activation in a Jurkat cell line using a luminescence assay - Set 2. [Related pubchem assays (depositor defined):AID435003, AID435012, AID465]; format: functional, cell-based; details: Homo sapiens
[10] = system: HEK293; test: cytotoxicity in HEK293T NF-kB-Luc cells, SAR follow-up, cytotoxicity control for NF-kB activator project, cell-based, resazurin fluorescence (AID 493251); format: functional; details: Homo sapiens
[11] = cytotoxicity in HEK-293T cells, dose response, cytotoxicity control for BCR NF-kB inhibitor project, luminescence, B-cell screen hits (AID 489021); format: functional, cell-based;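 also: HEK-293T cells carrying an NF-kB luciferase reporter; cells exposed to compound for about 14 hours before viability readout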
[12] = molecular target: Cytochrome P450 2C19 (Homo sapiens, UniProt P33261); test: Cytochrome panel assay with activity outcomes. Panel member name: p450-cyp2c19 Compounds with AC50 equal or less than 10 uM are considered active; format: functional; details: read-out: AC50
[13] = growth suppression of beta-catenin-knockout colon cells, dose response, cell-based, HCT116, human colon tumor (AID 1045); format: functional;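 also: HCT116 colon tumor cells with beta catenin knocked out; cells exposed to compound for 60 hours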
[14] = molecular target: T3, Zinc finger protein mex-5 (Caenorhabditis elegans, UniProt Q9XUB2); test: MEX-5/TCR-2 RNA interaction inhibitors, dose response, biochemical, C. elegans, fluorescence polarization (AID 1960)
T3 sequence (Q9XUB2 whole entry): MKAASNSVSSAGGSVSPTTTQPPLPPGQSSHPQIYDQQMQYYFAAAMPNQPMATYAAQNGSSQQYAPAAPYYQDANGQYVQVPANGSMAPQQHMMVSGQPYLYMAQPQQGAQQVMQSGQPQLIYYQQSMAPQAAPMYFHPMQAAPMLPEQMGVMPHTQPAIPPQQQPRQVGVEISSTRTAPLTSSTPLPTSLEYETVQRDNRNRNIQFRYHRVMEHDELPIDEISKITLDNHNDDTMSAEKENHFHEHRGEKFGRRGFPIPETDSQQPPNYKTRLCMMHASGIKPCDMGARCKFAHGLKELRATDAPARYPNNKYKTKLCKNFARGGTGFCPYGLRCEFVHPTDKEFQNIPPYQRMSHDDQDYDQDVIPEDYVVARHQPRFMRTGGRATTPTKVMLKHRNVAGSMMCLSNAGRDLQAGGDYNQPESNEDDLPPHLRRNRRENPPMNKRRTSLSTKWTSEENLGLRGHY

[15] = molecular target: T4, Endoribonuclease toxin MazF (Escherichia coli K-12, UniProt P0AE70); test: MazF toxin RNase activators, dose response, biochemical, fluorescence, single-stranded RNA substrate, uHTS hits (AID 588481); format: functional
T4 sequence (P0AE70 whole entry): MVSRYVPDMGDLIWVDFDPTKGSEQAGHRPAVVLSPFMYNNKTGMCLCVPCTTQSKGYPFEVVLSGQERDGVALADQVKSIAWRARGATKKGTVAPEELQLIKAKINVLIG

[16] = system: A-375; test: MITF: Counter assay: A375 proliferation Measured in Cell-Based System Using Plate Reader - 2084-03_Inhibitor_Dose_DryPowder_Activity. [Related pubchem assays (depositor defined):AID488944]; format: functional; details: Homo sapiens
[17] = molecular target: T4, Endoribonuclease toxin MazF; test: fluorescent RNA oligo signal without MazF, dose response, counter-screen for MazEF activator project, biochemical, fluorescence, single-stranded RNase substrate (AID 588502); format: functional
[18] = molecular target: T5, RNA-binding protein pos-1 (Caenorhabditis elegans, UniProt G5EF15); test: inhibitors of POS-1/mex-3 RNA binding, dose response, biochemical, fluorescence polarization (AID 1964);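 also: purified POS-1 fused to maltose binding protein made in E. coli; potency of compounds blocking POS-1 binding to fluorescent RNA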
T5 sequence (G5EF15 whole entry): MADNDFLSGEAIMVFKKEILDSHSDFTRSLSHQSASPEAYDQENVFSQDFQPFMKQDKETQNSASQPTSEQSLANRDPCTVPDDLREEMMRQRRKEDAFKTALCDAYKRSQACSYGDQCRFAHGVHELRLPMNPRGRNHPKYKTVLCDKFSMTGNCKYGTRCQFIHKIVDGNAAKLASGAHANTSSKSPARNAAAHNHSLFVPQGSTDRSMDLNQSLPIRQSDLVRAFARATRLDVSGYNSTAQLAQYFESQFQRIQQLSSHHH

[19] = molecular target: X-box-binding protein 1 (Homo sapiens, UniProt P17861); format: functional, Cricetulus griseus;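 also: confirmatory dose-response counter-screen serving a CHOP assay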
[20] = growth suppression of PTEN-null colon cells, dose response, cell-based, HCT116 PTEN knockout (AID 1047); format: functional;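 also: HCT116 colon tumor cells with PTEN knocked out; cells exposed to compound for 60 hours before readout; potency for loss of cell viability measured by luminescence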

Sequence of Cytochrome P450 2C19 (P33261 whole entry): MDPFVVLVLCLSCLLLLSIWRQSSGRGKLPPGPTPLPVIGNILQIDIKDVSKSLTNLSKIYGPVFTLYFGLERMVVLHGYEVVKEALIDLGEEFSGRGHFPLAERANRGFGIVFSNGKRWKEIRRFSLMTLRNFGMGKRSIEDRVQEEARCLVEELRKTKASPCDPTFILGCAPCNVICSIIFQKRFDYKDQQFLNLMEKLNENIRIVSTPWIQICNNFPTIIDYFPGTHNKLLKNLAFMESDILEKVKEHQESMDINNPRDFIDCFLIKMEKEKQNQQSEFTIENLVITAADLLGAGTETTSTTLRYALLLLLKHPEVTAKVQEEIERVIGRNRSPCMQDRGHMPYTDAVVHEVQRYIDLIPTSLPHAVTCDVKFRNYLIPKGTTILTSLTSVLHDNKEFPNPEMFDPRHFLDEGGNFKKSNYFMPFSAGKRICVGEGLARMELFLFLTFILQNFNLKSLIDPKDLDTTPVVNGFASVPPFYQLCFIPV
Sequence of X-box-binding protein 1 (P17861 whole entry): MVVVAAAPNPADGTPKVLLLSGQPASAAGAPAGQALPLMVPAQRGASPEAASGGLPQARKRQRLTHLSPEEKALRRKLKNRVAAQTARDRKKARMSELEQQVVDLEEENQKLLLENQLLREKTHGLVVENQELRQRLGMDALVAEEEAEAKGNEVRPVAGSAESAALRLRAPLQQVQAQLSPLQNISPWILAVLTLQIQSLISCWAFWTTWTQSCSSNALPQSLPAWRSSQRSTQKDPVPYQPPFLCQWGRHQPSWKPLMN

Question: Which results are given for `N#C/C(=C\c1ccc(N2CCCCC2)c([N+](=O)[O-])c1)c1nn(-c2ccccc2)c(N)c1C#N`?
Answer: EC50 [1]: 1.81 µM (active); AC50 [2]: > 380 µM (inactive); AC50 [3]: 26.2 µM (active); EC50 [4]: > 30 µM (not active)

Question: Which AC50 [5] does the source give for `Cc1cccc(/C=C2/Sc3ccc(C(=O)NCCN4CCCC4)cc3NC2=O)c1` here?
Answer: The AC50 was 21.1 µM (active).

Question: What about the AC50 [6] of the same compound?
Answer: The AC50 was 18.4 µM (active).

Question: And the IC50 [7]?
Answer: The IC50 was > 20 µM (inactive).

Question: For `CN(C)C(=O)CCc1nc(-c2ccc(C(C)(C)C)cc2)no1`, which IC50 [8] is on record?
Answer: Its IC50 is 48.5 µM (inactive).

Question: And the IC50 [9]?
Answer: Its IC50 is > 79 µM (inactive).

Question: What about the IC50 [10] of the same compound?
Answer: The IC50 was > 80 µM (inactive).

Question: What about the IC50 [11] of the same compound?
Answer: Its IC50 is > 80 µM (inactive).

Question: And the AC50 [12]?
Answer: Its AC50 is 22.4 µM (inconclusive).

Question: Which results are given for `Br.N=c1n(CC(=O)c2ccc([N+](=O)[O-])cc2)c2ccccc2n1Cc1ccc(Cl)cc1`?
Answer: EC50 [13]: 5.28 µM (active); EC50 [14]: > 300 µM (not active); EC50 [15]: > 99 µM (inactive); AC50 [16]: 22.2 µM (active); EC50 [17]: 1.93 µM (active); EC50 [18]: 125 µM (active); Absolute IC50 (XBP1) [19]: 10 µM; EC50 [20]: 5.38 µM (active)
